From PMC10610188, “Structure–Activity Relationship Studies of Chalcones and Diarylpentanoids with Antitumor Activity: Potency and Selectivity Optimization” (Pharmaceuticals, 2023)

Columns and labels:
HFF-1 cells = assay: SRB growth inhibition assay in normal fibroblasts HFF-1; assay type: cell-based, human; details: for SI2: Selective index 2: GI50 of HFF-1/GI50 of HCT116 p53^+/+; for GI50: Homo sapiens, HFF-1, SRB assay, 48 h of treatment
Protocol: (§1) To study the in vitro antitumor potential of chalcone CM-M345 (1) and diarylpentanoid BP-C4 (2) analogues, the sulforhodamine B (SRB) assay was used to evaluate the antiproliferative activity in human colorectal HCT116 cancer cells. To assess their cytotoxicity toward normal cells, the antiproliferative effect of these compounds was also tested in human fibroblasts HFF-1 cells. In order to confirm if inhibition of proliferation was associated with p53 activation in HCT116 p53^+/+ cells, all compounds were also tested in HCT116 cells in which p53 was knocked out (HCT116 p53^−/−) and the selective index was calculated and compared to the compounds CM-M345 (1) and BP-C4 (2), for which p53-dependent antiproliferative activity was previously reported by our research group (Table 1).
(§2) The colorectal adenocarcinoma HCT116 cells (HCT116 p53^+/+) and its p53-null isogenic derivative (HCT116 p53^−/−) were given by Prof. Vogelstein (The Johns Hopkins Kimmel Cancer Center, Baltimore, USA); the normal human fibroblasts HFF-1 cell lines were from ATCC (Rockville, MD, USA). Human cells were cultured in RPMI-1640 with UltraGlutamine (Lonza, VWR, Portugal) with 10% FBS (Gibco, Alfagene, Portugal) at 37 °C with 5% CO2. The SH-SY5Y cells were cultured in DMEM/F-12 (Lonza) and 10% FBS and 2mM L-glutamine (Gibco). The cells were incubated at 37 °C in a humidified atmosphere of 5% CO2. Mycoplasma was routinely checked using the MycoAlert™ PLUS kit (Lonza). […]

HCT116 p53^−/− cells = assay: SRB growth inhibition assay in HCT116 p53-/- cells; assay type: cell-based, human; details: for SI1: Selective index 1: GI50 of HCT116 p53^−/−/GI50 of HCT116 p53^+/+; for GI50: Homo sapiens, HCT-116, SRB assay, 48 h of treatment
Protocol: as §1, §2

HCT116 p53^+/+ cells = assay: SRB growth inhibition assay in HCT116 p53+/+ cells; assay type: cell-based, human; details: SRB assay, 48 h of treatment
Protocol: as §1, §2

| SMILES | melting point [°C] | GI50 (HCT116 p53^−/− cells) [µM] | GI50 (HCT116 p53^+/+ cells; Homo sapiens, HCT-116, 48 h) [µM] | GI50 (HCT116 p53^+/+ cells) [µM] | SI2: Selective index 2 (HFF-1 cells) | GI50 (HFF-1 cells) [µM] | SI1: Selective index 1 (HCT116 p53^−/− cells) | GI50 (HCT116 p53^+/+ cells; Homo sapiens, HCT-116) [µM] |
| --- | --- | --- | --- | --- | --- | --- | --- | --- |
| COc1cc(/C=C2\Cc3c(ccc(OC)c3OC)C2=O)cc(OC)c1OC [Compound 4, (E)-2-(3,4,5-trimethoxybenzylidene)-4,5-dimethoxy-2,3-dihydro-1H-inden-1-one] | 165 to 168 | 3.1 ± 0.22 |  |  | 1.34 | 5.1 ± 0.9 | 0.82 | 3.8 ± 0.32 |
| COc1cc2c(cc1OC)C(=O)/C(=C/c1cc(OC)c(OC)c(OC)c1)C2 [Compound 5] | 156 to 159 | 4.1 ± 0.36 | 6.1 ± 0.12 |  | 0.52 | 3.2 ± 0.07 | 0.67 |  |
| COc1cc2c(cc1OC)C(=O)/C(=C/c1ccc(Cl)cc1)C2 [Compound 8] |  | 4.5 ± 0.28 |  |  | 0.68 | 5.1 ± 0.9 | 0.60 | 7.5 ± 0.45 |
| COc1cc2c(cc1OC)C(=O)/C(=C/c1cc(OC)c(OC)c(OC)c1)CC2 [Compound 10, (E)-2-(3,4,5-trimethoxybenzylidene)-6,7-dimethoxy-3,4-dihydronaphthalen-1(2H)-one] | 145 to 147 | 2.9 ± 0.11 | 6.7 to 8.6 | 4 ± 0.23 | 1.35 | 5.4 ± 0.1 | 0.73 |  |
| COc1cc(/C=C2\COc3ccccc3C2=O)cc(OC)c1OC [Compound 11] | 109 to 111 | 6.1 ± 1 | 6.7 to 8.6 | 6.3 ± 2.18 | 1.32 | 8.3 ± 1.4 | 0.97 |  |
| COc1cc(/C=C/C(=O)/C=C/c2cc(OC)c(OC)c(OC)c2)cc(OC)c1OC [Compound 21] |  | > 30 | > 30 |  |  | > 30 |  |  |
| COc1cc(/C=C2\CSC/C(=C\c3cc(OC)c(OC)c(OC)c3)C2=O)cc(OC)c1OC [Compound 24] | 219 to 222 | 0.57 ± 0.009 | 0.31 ± 0.03 |  | 0.74 | 0.23 ± 0.02 | 1.84 |  |
| CCCc1c(OC)ccc(C(=O)/C=C/c2cc(OC)c(OC)c(OC)c2)c1OCC=C(C)C [Compound 26, (E)-1-(4-methoxy-2-((3-methylbut-2-en-1-yl)oxy)-3-propylphenyl)-3-(3,4,5-trimethoxyphenyl)prop-2-en-1-one] | 100 to 103 | 4.6 ± 1.7 | 6 ± 0.93 |  | 1.22 | 7.3 ± 2 | 0.77 |  |
| CCCc1c(OC)ccc2c(=O)cc(-c3cc(OC)c(OC)c(OC)c3)oc12 [Compound 27, 7-methoxy-8-propyl-2-(3,4,5-trimethoxyphenyl)-4H-chromen-4-one] | 153 to 155 | > 30 | > 30 |  |  | > 30 |  |  |
| CCCc1c(OC)ccc(C(O)/C=C/c2cc(OC)c(OC)c(OC)c2)c1O (centres unmarked) [Compound 28, (E)-6-(1-hydroxy-3-(3,4,5-trimethoxyphenyl)allyl)-3-methoxy-2-propylphenol] | 219 to 222 | 12 ± 5 | 15 ± 1.73 |  | 1.13 | 17 ± 4.4 | 0.80 |  |
| CCCc1c(OC)ccc(C(=O)CCc2cc(OC)c(OC)c(OC)c2)c1O [Compound 29, 1-(2-hydroxy-4-methoxy-3-propylphenyl)-3-(3,4,5-trimethoxyphenyl)propan-1-one] |  | 11.2 ± 5.3 | 18.7 ± 2.19 |  | 1.18 | 22.1 ± 7.2 | 0.60 |  |
| CCCc1c(OC)ccc(C(=O)/C=C/c2ccc(N(C)C)cc2)c1O [Compound 35, (E)-3-(4-(dimethylamino)phenyl)-1-(2-hydroxy-4-methoxy-3-propylphenyl)prop-2-en-1-one] | 126 to 128 | 16.3 ± 2.6 |  |  | 1.31 | 14 ± 3.6 | 1.52 |  |
| COc1cc([C@@H]2c3cc4c(cc3[C@@H](O[C@@H]3O[C@@H]5CO[C@@H](C)O[C@H]5[C@H](O)[C@H]3O)[C@H]3COC(=O)[C@H]23)OCO4)cc(OC)c1O [Etoposide, reference compound] |  |  | 0.71 |  |  | 0.35 |  |  |

Continued, in another order:

| melting point [°C] | GI50 (HCT116 p53^−/− cells) [µM] | GI50 (HCT116 p53^+/+ cells; Homo sapiens, HCT-116, 48 h) [µM] | GI50 (HCT116 p53^+/+ cells) [µM] | SMILES | SI2: Selective index 2 (HFF-1 cells) | GI50 (HFF-1 cells) [µM] | SI1: Selective index 1 (HCT116 p53^−/− cells) | GI50 (HCT116 p53^+/+ cells; Homo sapiens, HCT-116) [µM] |
| --- | --- | --- | --- | --- | --- | --- | --- | --- |
| 160 to 163 | 3.2 ± 0.47 | 4.6 ± 0.3 |  | COc1cc(/C=C2\Cc3ccccc3C2=O)cc(OC)c1OC [Compound 3] | 1.76 | 8.1 ± 0.1 | 0.70 |  |
| 179 to 181 | > 30 | 21.5 to 30 | 21.5 ± 1.19 | O=C1/C(=C/c2ccc(Cl)cc2)Cc2ccccc21 [Compound 6] |  | > 30 |  |  |
| 206 to 209 | 4.5 ± 0.13 | 7.4 ± 0.56 |  | COc1ccc2c(c1OC)C/C(=C\c1ccc(Cl)cc1)C2=O [Compound 7, (E)-2-(4-chlorobenzylidene)-4,5-dimethoxy-2,3-dihydro-1H-inden-1-one] | 0.64 | 4.7 ± 0.5 | 0.61 |  |
|  | 7.8 ± 0.9 | 5.9 ± 1.28 |  | COc1cc(/C=C2\CCc3ccccc3C2=O)cc(OC)c1OC [Compound 9] | 0.93 | 5.5 ± 0.03 | 1.32 |  |
|  | 3.9 ± 0.26 | 5.7 ± 0.51 |  | COc1cc(/C=C2\CSc3ccccc3C2=O)cc(OC)c1OC [Compound 12, (Z)-3-(3,4,5-trimethoxybenzylidene)thiochroman-4-one] |  | 6.7 ± 0.4 |  |  |
|  | > 30 | 21.5 to 30 | > 30 | O=C1/C(=C/c2ccc(Cl)cc2)CCc2ccccc21 [Compound 13] |  | > 30 |  |  |
|  | 4.3 ± 0.15 | 6.7 ± 0.21 |  | COc1cc2c(cc1OC)C(=O)/C(=C/c1ccc(Cl)cc1)CC2 [Compound 14, (E)-2-(4-chlorobenzylidene)-6,7-dimethoxy-3,4-dihydronaphthalen-1(2H)-one] |  | 7.7 ± 0.2 |  |  |
|  | 5.29 ± 0.19 | 8.6 ± 0.5 |  | O=C1/C(=C/c2ccc(Cl)cc2)COc2ccccc21 [Compound 15] | 0.49 | 4.25 ± 0.32 | 0.62 |  |
|  | > 30 | > 30 |  | O=C1/C(=C/c2ccc(Cl)cc2)CC/C1=C\c1ccc(Cl)cc1 [Compound 18] |  | > 30 |  |  |
|  | 2.95 ± 0.15 | 3.1 ± 0.1 |  | O=C1/C(=C/c2ccc(Cl)cc2)CCC/C1=C\c1ccc(Cl)cc1 [Compound 19] | 4.55 | 14.1 ± 0.12 | 0.95 |  |
| 126 to 128 | 1.05 ± 0.05 | 1.13 ± 0.17 |  | O=C1/C(=C/c2ccc(Cl)cc2)CSC/C1=C\c1ccc(Cl)cc1 [Compound 20] | 2.01 | 2.27 ± 0.09 | 0.93 |  |
|  | 0.07 ± 0.01 | 0.09 ± 0.03 |  | COc1cc(/C=C2\CC/C(=C\c3cc(OC)c(OC)c(OC)c3)C2=O)cc(OC)c1OC [Compound 22] | 1.50 | 0.135 ± 0.004 | 0.78 |  |
|  | 0.56 ± 0.07 | 2.3 ± 0.03 |  | COc1cc(/C=C2\CCC/C(=C\c3cc(OC)c(OC)c(OC)c3)C2=O)cc(OC)c1OC [Compound 23] | 0.72 | 1.65 ± 0.04 | 0.24 |  |
| 219 to 222 | > 30 | > 30 |  | OC1/C(=C/c2ccc(Cl)cc2)COC/C1=C\c1ccc(Cl)cc1 (centres unmarked) [Compound 30, 3,5-bis((E)-4-chlorobenzylidene)tetrahydro-2H-pyran-4-ol] |  | > 30 |  |  |
| 145 to 146 | > 30 | > 30 |  | O=C1C(Cc2ccc(Cl)cc2)COCC1Cc1ccc(Cl)cc1 (centres unmarked) [Compound 31, 3,5-bis(4-chlorobenzyl)tetrahydro-4H-pyran-4-one] |  | > 30 |  |  |
| 109 to 112 | 9.5 ± 0.1 | 9.5 ± 0.5 |  | CCCc1c(OC)ccc(C(=O)/C=C/c2ccc(Cl)cc2)c1O [Compound 32] | 1.17 | 11.1 ± 0.12 | 1 |  |
|  | > 30 | > 30 |  | CC(C)=CCOc1ccccc1/C=C1\COC/C(=C\c2ccccc2OCC=C(C)C)C1=O [Compound 38, 3,5-bis((E)-2-((3-methylbut-2-en-1-yl)oxy)benzylidene)tetrahydro-4H-pyran-4-one] |  | > 30 |  |  |
